From patent US8614218B2, “Fused bicyclic pyrimidines” (Bayer Intellectual Property GmbH, priority 2007, dated 2013)

Tested on: A549 cells
Assay: Cellular proliferation/cytotoxicity assay (Alamar Blue), A549
Type: cell-based
Conditions: Homo sapiens, 72 h, Alamar Blue (Resazurin), read-out: Anti-proliterative/Cytotoxic activity (A549 cells)
Procedure: Cellular Proliferation/Cytotoxicity Assay:
The anti-proliferative activity of the compounds as described herein, is evaluated using the OvCAR3, HCT116 and A549 cell lines and the Alamar Blue (Resazurin) cell viability assay (O'Brien et al. Eur J Biochem 267, 5421-5426, 2000). Resazurin is reduced to the fluorescent resorufin by cellular dehydrogenase activity, correlating with viable, proliferating cells. Test compounds are dissolved as 10 mM solutions in DMSO and subsequently diluted. Cells like HCT116 or A549 cells were seeded into 96 well flat bottom plates at a density of 10000 cells/well (OvCAR3 cells), 1000 cells/well (HCT116 cells) or 2000 cells/well (A549 cells) in a volume of 200 μl/well. 24 hours after seeding, 1 μl each of the compound dilutions are added into each well of the 96 well plates. Each compound dilution is tested as at least as duplicates. Wells containing untreated control cells were filled with 200 μl DMEM (Dulbecco's Modified Eagle Medium) containing 0.5 vol % v:v DMSO. The cells are then incubated with the substances for 72 h at 37° C. in a humidified atmosphere containing 5 vol % CO2. To determine the viability of the cells, 20 μl of a Resazurin solution (90 mg/l) are added. After 4 h incubation at 37° C., the fluorescence is measured by extinction at λ=544 nm and an emission of λ=590 nm (Wallac Victor2; Perkin Elmer, USA). For the calculation of the cell viability, the emission value from untreated cells is set as 100% viability and the fluorescence intensity of treated cells are set in relation to the values of untreated cells. Viabilities are expressed as % values. The corresponding IC50 values of the compounds for cytotoxic activity are determined from the concentration-effect curves by means of non-linear regression. The analysis of the data is performed using a biostatistical program (GraphPad Prism, USA).
Representative IC50 values for anti-proliferative/cytotoxic potency determined in the aforementioned assay follow from the following table, in which the numbers of the compound correspond to the numbers of the examples.

Row | Structure (SMILES) | IC50 [µM]
1 | COc1nc2nc(-c3ccc(CN4CCC(c5n[nH]c(-c6ccccn6)n5)CC4)cc3)c(-c3ccccc3)cn2n1 [Example 66, 2-Methoxy-6-phenyl-5-(4-{[4-(5-pyridin-2-yl-1H-1,2,4-triazol-3-yl)piperidin-1-yl]methyl}phenyl)[1,2,4]triazolo[1,5-a]pyrimidine] | < 10
2 | c1ccc(-c2nc(C3CCN(Cc4ccc(-c5nc6nccn6cc5-c5ccsc5)cc4)CC3)n[nH]2)nc1 [Example 51, 7-(4-{[4-(5-Pyridin-2-yl-1H-1,2,4-triazol-3-yl)piperidin-1-yl]methyl}phenyl)-6-(3-thienyl)imidazo[1,2-a]pyrimidine] | < 10
3 | NC(=O)c1cc2nc(-c3ccc(CN4CCC(c5n[nH]c(-c6ccccn6)n5)CC4)cc3)c(-c3ccccc3)cn2n1 [Example 78, 6-Phenyl-5-(4-{[4-(5-pyridin-2-yl-1H-1,2,4-triazol-3-yl)piperidin-1-yl]methyl}phenyl)pyrazolo[1,5-a]pyrimidine-2-carboxamide] | > 10
4 | c1ccc(-c2cn3ccnc3nc2-c2ccc(CN3CCC(c4n[nH]c(-c5ccccn5)n4)CC3)cc2)cc1 [Example 85, 6-phenyl-7-{4-[4-(5-pyridin-2-yl-1H-[1,2,4]triazol-3-yl)-piperidin-1-ylmethyl]-phenyl}-imidazo[1,2-a]pyrimidine] | > 10
5 | CNc1nc2nc(-c3ccc(CN4CCC(c5n[nH]c(-c6ccccn6)n5)CC4)cc3)c(-c3ccccc3)cn2n1 [Example 65, N-Methyl-6-phenyl-5-(4-{[4-(5-pyridin-2-yl-1H-1,2,4-triazol-3-yl)piperidin-1-yl]methyl}phenyl)[1,2,4]triazolo[1,5-a]pyrimidin-2-amine] | < 10
6 | COC(=O)c1cc2nc(-c3ccc(CN4CCC(c5n[nH]c(-c6ccccn6)n5)CC4)cc3)c(-c3ccccc3)cn2n1 [Example 77, Methyl 6-phenyl-5-(4-{[4-(5-pyridin-2-yl-1H-1,2,4-triazol-3-yl)piperidin-1-yl]methyl}phenyl)pyrazolo[1,5-a]pyrimidine-2-carboxylate] | < 10
7 | c1ccc(-c2cn3ccnc3nc2-c2ccc(CN3CCC(c4nc(-c5ccco5)n[nH]4)CC3)cc2)cc1 [Example 82, 7-[4-({4-[3-(2-furyl)-1H-1,2,4-triazol-5-yl]piperidin-1-yl}methyl)phenyl]-6-phenylimidazo[1,2-a]pyrimidine] | > 10
8 | CN(C)c1nc2nc(-c3ccc(CN4CCC(c5n[nH]c(-c6ccccn6)n5)CC4)cc3)c(-c3ccccc3)cn2n1 [Example 62, N,N-Dimethyl-6-phenyl-5-(4-{[4-(5-pyridin-2-yl-1H-1,2,4-triazol-3-yl)piperidin-1-yl]methyl}phenyl)[1,2,4]triazolo[1,5-a]pyrimidin-2-amine] | < 10
9 | Brc1nc2nc(-c3ccc(CN4CCC(c5n[nH]c(-c6ccccn6)n5)CC4)cc3)c(-c3ccccc3)cn2n1 [Example 52, 2-Bromo-6-phenyl-5-(4-{[4-(5-pyridin-2-yl-1H-1,2,4-triazol-3-yl)piperidin-1-yl]methyl}phenyl)[1,2,4]triazolo[1,5-a]pyrimidine] | < 10
10 | C#Cc1nc2nc(-c3ccc(CN4CCC(c5n[nH]c(-c6ccccn6)n5)CC4)cc3)c(-c3ccccc3)cn2n1 [Example 53, 2-Ethynyl-6-phenyl-5-(4-{[4-(5-pyridin-2-yl-1H-1,2,4-triazol-3-yl)piperidin-1-yl]methyl}phenyl)[1,2,4]triazolo[1,5-a]pyrimidine] | < 10
11 | c1ccc(-c2cn3nc(C4CC4)cc3nc2-c2ccc(CN3CCC(c4n[nH]c(-c5ccccn5)n4)CC3)cc2)cc1 [Example 48, 2-Cyclopropyl-6-phenyl-5-(4-{[4-(5-pyridin-2-yl-1H-1,2,4-triazol-3-yl)piperidin-1-yl]methyl}phenyl)pyrazolo[1,5-a]pyrimidine] | < 10
12 | c1ccc(-c2cn3nccc3nc2-c2ccc(CN3CCC(c4nc(-c5ccncc5)n[nH]4)CC3)cc2)cc1 [Example 71, 6-Phenyl-5-(4-{[4-(3-pyridin-4-yl-1H-1,2,4-triazol-5-yl)piperidin-1-yl]methyl}phenyl)pyrazolo[1,5-a]pyrimidine] | > 10
13 | c1ccc(-c2cn3nccc3nc2-c2ccc(CN3CCC(c4nc(-c5ccc[nH]5)n[nH]4)CC3)cc2)cc1 [Example 72, 6-Phenyl-5-[4-({4-[3-(1H-pyrrol-2-yl)-1H-1,2,4-triazol-5-yl]piperidin-1-yl}methyl)phenyl]pyrazolo[1,5-a]pyrimidine] | < 10
14 | c1ccc(-c2cn3ccnc3nc2-c2ccc(CN3CCC(c4nc(-c5ccc[nH]5)n[nH]4)CC3)cc2)cc1 [Example 68, 6-Phenyl-7-[4-({4-[3-(1H-pyrrol-2-yl)-1H-1,2,4-triazol-5-yl]piperidin-1-yl}methyl)phenyl]imidazo[1,2-a]pyrimidine] | < 10
15 | FC(F)(F)c1nc2nc(-c3ccc(CN4CCC(c5n[nH]c(-c6ccccn6)n5)CC4)cc3)c(-c3ccccc3)cn2n1 [Example 63, 6-Phenyl-5-(4-{[4-(5-pyridin-2-yl-1H-1,2,4-triazol-3-yl)piperidin-1-yl]methyl}phenyl)-2-(trifluoromethyl)[1,2,4]triazolo[1,5-a]pyrimidine] | > 10
16 | Cc1nc2nc(-c3ccc(CN4CCC(c5cc(-c6ccccn6)n[nH]5)CC4)cc3)c(-c3ccccc3)cn2n1 [Example 46, 2-Methyl-6-phenyl-5-(4-{[4-(3-pyridin-2-yl-1H-pyrazol-5-yl)piperidin-1-yl]methyl}phenyl)[1,2,4]triazolo[1,5-a]pyrimidine] | > 10
17 | Cc1nc2nc(-c3ccc(CN4CCC(c5n[nH]c(-c6ccccn6)n5)CC4)cc3)c(-c3ccsc3)cn2n1 [Example 54, 2-Methyl-5-(4-{[4-(5-pyridin-2-yl-1H-1,2,4-triazol-3-yl)piperidin-1-yl]methyl}phenyl)-6-(3-thienyl)[1,2,4]triazolo[1,5-a]pyrimidine] | < 10
18 | Nc1nc2nc(-c3ccc(CN4CCC(c5n[nH]c(-c6ccccn6)n5)CC4)cc3)c(-c3ccccc3)cn2n1 [Example 67, 6-Phenyl-5-(4-{[4-(5-pyridin-2-yl-1H-1,2,4-triazol-3-yl)piperidin-1-yl]methyl}phenyl)[1,2,4]triazolo[1,5-a]pyrimidin-2-amine] | < 10
19 | c1ccc(-c2cn3nccc3nc2-c2ccc(CN3CCC(c4nc(-c5ncccn5)n[nH]4)CC3)cc2)cc1 [Example 69, 6-Phenyl-5-(4-{[4-(3-pyrimidin-2-yl-1H-1,2,4-triazol-5-yl)piperidin-1-yl]methyl}phenyl)pyrazolo[1,5-a]pyrimidine] | > 10
20 | O=C(O)c1cc2nc(-c3ccc(CN4CCC(c5n[nH]c(-c6ccccn6)n5)CC4)cc3)c(-c3ccccc3)cn2n1 [Example 79, 6-Phenyl-5-(4-{[4-(5-pyridin-2-yl-1H-1,2,4-triazol-3-yl)piperidin-1-yl]methyl}phenyl)pyrazolo[1,5-a]pyrimidine-2-carboxylic acid] | < 10
21 | Cc1nc2nc(-c3ccc(CN4CCC(c5nc(-c6ccccc6)n[nH]5)CC4)cc3)c(-c3ccccc3)cn2n1 [Example 83, 2-methyl-6-phenyl-5-(4-{[4-(3-phenyl-1H-1,2,4-triazol-5-yl)piperidin-1-yl]methyl}phenyl)[1,2,4]triazolo[1,5-a]pyrimidine] | > 10
22 | Cc1nc2nc(-c3ccc(CN4CCC(c5n[nH]c(-c6ccccn6)n5)CC4)cc3)c(-c3ccccc3)c(N(C)C)n2n1 [Example 64, N,N,2-Trimethyl-6-phenyl-5-(4-{[4-(5-pyridin-2-yl-1H-1,2,4-triazol-3-yl)piperidin-1-yl]methyl}phenyl)[1,2,4]triazolo[1,5-a]pyrimidin-7-amine] | < 10
23 | Cc1nc2nc(-c3ccc(CN4CCC(c5nc(-c6ccco6)n[nH]5)CC4)cc3)c(-c3ccccc3)cn2n1 [Example 80, 5-[4-({4-[3-(2-furyl)-1H-1,2,4-triazol-5-yl]piperidin-1-yl}methyl)phenyl]-2-methyl-6-phenyl[1,2,4]triazolo[1,5-a]pyrimidine] | > 10
24 | Cc1cccc(-c2n[nH]c(C3CCN(Cc4ccc(-c5nc6ccnn6cc5-c5ccccc5)cc4)CC3)n2)n1 [Example 75, 5-[4-({4-[3-(6-Methylpyridin-2-yl)-1H-1,2,4-triazol-5-yl]piperidin-1-yl}methyl)phenyl]-6-phenylpyrazolo[1,5-a]pyrimidine] | < 10
25 | COc1ccnc(-c2nc(C3CCN(Cc4ccc(-c5nc6nccn6cc5-c5ccccc5)cc4)CC3)n[nH]2)c1 [Example 84, 7-[4-({4-[5-(4-methoxypyridin-2-yl)-1H-1,2,4-triazol-3-yl]piperidin-1-yl}methyl)phenyl]-6-phenylimidazo[1,2-a]pyrimidine] | < 10
26 | c1ccc(-c2cn3nccc3nc2-c2ccc(CN3CCC(c4nc(-c5ccco5)n[nH]4)CC3)cc2)cc1 [Example 81, 5-[4-({4-[3-(2-furyl)-1H-1,2,4-triazol-5-yl]piperidin-1-yl}methyl)phenyl]-6-phenylpyrazolo[1,5-a]pyrimidine] | < 10
